According to ChEMBL document CHEMBL1201862, “PubChem BioAssay data set” (2004):
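Assay format: 96-well plates, 48-hour exposure. GI50 is the concentration that inhibits growth by half.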 Active and inactive are the calls of the source. No stated cut-off is given here; in the data, active = GI50 up to about 1.1 µM and inactive = higher.

What was measured:
Experiment in all cases: NCI tumour cell line growth inhibition, 48 h
[1] = test system: SF-268
[2] = test system: OVCAR-5
[3] = test system: SNB-19
[4] = test system: SNB-75
[5] = test system: SK-MEL-28
[6] = test system: SK-MEL-2
[7] = test system: MOLT-4
[8] = test system: CCRF-CEM
[9] = test system: SF-295
[10] = test system: OVCAR-3
[11] = test system: A549
[12] = test system: HCT-15
[13] = test system: NCI-H226
[14] = test system: SNB-78
[15] = test system: KM12
[16] = test system: A498
[17] = test system: OVCAR-4
[18] = test system: HCT-116
[19] = test system: Hs-578T
[20] = test system: SR

Compound | GI50 [1] | GI50 [2] | GI50 [3] | GI50 [4] | GI50 [5] | GI50 [6] | GI50 [7] | GI50 [8] | GI50 [9] | GI50 [10] | GI50 [11] | GI50 [12] | GI50 [13] | GI50 [14] | GI50 [15] | GI50 [16] | GI50 [17] | GI50 [18] | GI50 [19] | GI50 [20]
Cc1c(C)c2cc3c(=O)ccoc3c(C)c2oc1=O | 71.3 µM (inactive) | > 100 µM (inactive) | 48.6 µM (inactive) | 15 µM (inactive) | > 100 µM (inactive) | > 100 µM (inactive) | 20.9 µM (inactive) | 44 µM (inactive) | > 100 µM (inactive) | > 100 µM (inactive) | > 100 µM (inactive) | > 100 µM | 29.8 µM (inactive) | > 100 µM (inactive) | > 100 µM (inactive) | > 100 µM (inactive) | – | – | – | –
Cc1cc(-c2ccccc2)cc2[n+]1CC=C2.[O-][Cl+3]([O-])([O-])[O-] | > 100 µM (inactive) | > 100 µM (inactive) | > 100 µM (inactive) | 35.2 µM (inactive) | > 100 µM (inactive) | > 100 µM (inactive) | – | – | > 100 µM (inactive) | – | > 100 µM (inactive) | – | 45.6 µM (inactive) | > 100 µM (inactive) | > 100 µM (inactive) | – | > 100 µM (inactive) | > 100 µM (inactive) | – | –
c1cncc(CNCc2cccnc2)c1 | > 100 µM (inactive) | > 100 µM (inactive) | > 100 µM (inactive) | > 100 µM (inactive) | > 100 µM (inactive) | > 100 µM (inactive) | > 100 µM (inactive) | 49.2 µM (inactive) | > 100 µM (inactive) | > 100 µM (inactive) | > 100 µM (inactive) | > 100 µM | > 100 µM (inactive) | – | > 100 µM (inactive) | > 100 µM (inactive) | > 100 µM (inactive) | > 100 µM (inactive) | > 100 µM (inactive) | > 100 µM (inactive)
C#CC(O)/C=C/CCCCCCC#CC/C=C\CC#CCCCCCC/C=C/C(O)C#C (stereo unspecified) | 2.96 µM (inactive) | 2.48 µM (inactive) | 12.4 µM (inactive) | 7.19 µM (inactive) | 1.77 µM (inactive) | 2.99 µM (inactive) | 0.111 µM (active) | 0.255 µM (active) | 13.9 µM (inactive) | 2.7 µM (inactive) | 2.59 µM (inactive) | 2.55 µM | 5.32 µM (inactive) | – | 2.32 µM (inactive) | 3.21 µM (inactive) | 2.57 µM (inactive) | 1.57 µM (inactive) | 5.9 µM (inactive) | 2.54 µM (inactive)
COc1ccccc1CC(=O)C(O)(C(F)(F)F)C(F)(F)F | > 100 µM (inactive) | > 100 µM (inactive) | > 100 µM (inactive) | 12.7 µM (inactive) | > 100 µM (inactive) | > 100 µM (inactive) | > 100 µM (inactive) | > 100 µM (inactive) | > 100 µM (inactive) | > 100 µM (inactive) | > 100 µM (inactive) | > 100 µM | > 100 µM (inactive) | – | > 100 µM (inactive) | > 100 µM (inactive) | > 100 µM (inactive) | > 100 µM (inactive) | > 100 µM (inactive) | > 100 µM (inactive)
CCCCCCCC(=O)OC[n+]1ccc(-c2c(COC(=O)NC(C)C)c(COC(=O)NC(C)C)c3n2CCC3)cc1 | 25.8 µM (inactive) | > 96.6 µM (inactive) | 88.9 µM (inactive) | 42.3 µM (inactive) | > 100 µM (inactive) | 22.1 µM (inactive) | 13.3 µM (inactive) | 13.5 µM (inactive) | 53.5 µM (inactive) | > 62.7 µM (inactive) | 63.8 µM (inactive) | 52.4 µM | > 78.5 µM (inactive) | – | > 100 µM (inactive) | 29.9 µM (inactive) | 38.6 µM (inactive) | 25.5 µM (inactive) | 52.6 µM (inactive) | 5.65 µM (inactive)
N#CC(C#N)=CNC(=S)c1ccncc1 | 61.1 µM (inactive) | > 100 µM (inactive) | 41.6 µM (inactive) | 35.4 µM (inactive) | > 100 µM (inactive) | > 100 µM (inactive) | 64.3 µM (inactive) | 34.5 µM (inactive) | > 100 µM (inactive) | 0.117 µM (active) | > 100 µM (inactive) | 37.4 µM | > 100 µM (inactive) | – | > 100 µM (inactive) | 92.9 µM (inactive) | > 100 µM (inactive) | 53.6 µM (inactive) | 57.4 µM (inactive) | 18.7 µM (inactive)
CC(C)(C)OC(=O)NCCNC(=O)CN(CC(=O)O)C1CCCCC1N(CC(=O)O)CC(=O)O (stereo unspecified) | > 100 µM (inactive) | > 100 µM (inactive) | > 100 µM (inactive) | > 100 µM (inactive) | > 100 µM (inactive) | > 100 µM (inactive) | > 100 µM (inactive) | > 100 µM (inactive) | > 100 µM (inactive) | > 100 µM (inactive) | > 100 µM (inactive) | > 100 µM | > 100 µM (inactive) | – | > 100 µM (inactive) | > 100 µM (inactive) | > 100 µM (inactive) | > 100 µM (inactive) | > 100 µM (inactive) | > 100 µM (inactive)
C[C@]12CC[C@@H]3c4cc(OCC(F)(F)F)c(O)cc4CC[C@H]3[C@@H]1CC[C@@H]2O | 9.29 µM (inactive) | 18.7 µM (inactive) | 2.75 µM (inactive) | 1.63 µM (inactive) | 11.8 µM (inactive) | 4.55 µM (inactive) | 1 µM (active) | 1.51 µM (inactive) | 1.54 µM (inactive) | 0.459 µM (active) | 5.41 µM (inactive) | 0.762 µM | 7.05 µM (inactive) | – | 4.06 µM (inactive) | 7.66 µM (inactive) | 17.9 µM (inactive) | 1.9 µM (inactive) | 2.83 µM (inactive) | 0.335 µM (active)
COc1ccc(OC)c(N2C(=O)/C(=C\c3ccccc3)SC2c2cc(OC)c(OC)c(OC)c2)c1 (stereo unspecified) | > 100 µM (inactive) | > 93.3 µM (inactive) | > 100 µM (inactive) | 26.2 µM (inactive) | > 100 µM (inactive) | > 100 µM (inactive) | 52.6 µM (inactive) | 49.5 µM (inactive) | 47.5 µM (inactive) | 62.4 µM (inactive) | > 85.7 µM (inactive) | 58.3 µM | > 100 µM (inactive) | – | 61.5 µM (inactive) | 51.5 µM (inactive) | > 91.8 µM (inactive) | > 100 µM (inactive) | > 78 µM (inactive) | 33.7 µM (inactive)
CC(=O)ON(C(C)=O)c1ccc(-c2nc3ccccc3s2)cc1C | 52.1 µM (inactive) | 4.28 µM (inactive) | 50.1 µM (inactive) | 74.1 µM (inactive) | 76.4 µM (inactive) | > 100 µM (inactive) | 66.7 µM (inactive) | 23.7 µM (inactive) | 31.6 µM (inactive) | 25.8 µM (inactive) | 28.7 µM (inactive) | 12.9 µM | 2.6 µM (inactive) | – | 47.4 µM (inactive) | 5.11 µM (inactive) | 51.4 µM (inactive) | 23.4 µM (inactive) | 37.8 µM (inactive) | 29.2 µM (inactive)
C/C(=N/NC(=O)c1ccncc1)c1ccc(NC(=O)C(=O)Nn2c(S)nc3ccccc3c2=O)cc1 | > 100 µM (inactive) | > 100 µM (inactive) | > 100 µM (inactive) | > 100 µM (inactive) | > 100 µM (inactive) | > 100 µM (inactive) | > 100 µM (inactive) | > 100 µM (inactive) | > 100 µM (inactive) | > 100 µM (inactive) | > 100 µM (inactive) | > 100 µM | > 100 µM (inactive) | – | > 100 µM (inactive) | > 100 µM (inactive) | > 100 µM (inactive) | > 100 µM (inactive) | > 100 µM (inactive) | > 100 µM (inactive)
CC[S+]([O-])c1c2cc(OC)ccc2nc2ccc(OC)cc12 (stereo unspecified) | 14.5 µM (inactive) | 17.8 µM (inactive) | 20 µM (inactive) | 21 µM (inactive) | 7.91 µM (inactive) | 17.5 µM (inactive) | 4.07 µM (inactive) | 3.79 µM (inactive) | 27.1 µM (inactive) | 6 µM (inactive) | 22.6 µM (inactive) | 6.75 µM | 21.8 µM (inactive) | – | 16.2 µM (inactive) | 17.3 µM (inactive) | 17 µM (inactive) | 3.19 µM (inactive) | 13.1 µM (inactive) | 3.51 µM (inactive)
CC(C)(C)C(=O)C(C#N)C(=O)C(C)(C)C | > 100 µM (inactive) | > 100 µM (inactive) | > 100 µM (inactive) | > 100 µM (inactive) | > 100 µM (inactive) | > 100 µM (inactive) | > 100 µM (inactive) | > 100 µM (inactive) | > 100 µM (inactive) | > 100 µM (inactive) | > 100 µM (inactive) | > 100 µM | > 100 µM (inactive) | – | > 100 µM (inactive) | > 100 µM (inactive) | > 100 µM (inactive) | > 100 µM (inactive) | > 100 µM (inactive) | 0.0697 µM (active)
CCOC(=O)c1c(C)n(CCN2CCN(C)CC2)c2ccc(OC)cc12 | 53.7 µM (inactive) | 61.4 µM (inactive) | 90.2 µM (inactive) | 24.8 µM (inactive) | 16.5 µM (inactive) | 17.6 µM (inactive) | 22.6 µM (inactive) | 24 µM (inactive) | 34.8 µM (inactive) | > 100 µM (inactive) | > 100 µM (inactive) | 28.8 µM | 29.7 µM (inactive) | – | 44.3 µM (inactive) | 22.5 µM (inactive) | 48.6 µM (inactive) | 38.4 µM (inactive) | 55.5 µM (inactive) | 20 µM (inactive)
